From ChEMBL document CHEMBL1201862, “PubChem BioAssay data set” (2004)
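96-well plates; 48 h exposure; 5 concentrations. Endpoints by linear interpolation between flanking doses. Not reached: highest tested concentration assigned. The concentration for 50% growth inhibition is given as GI50.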 The source made the active and inactive calls. No stated cut-off is given here; in the data, active = GI50 up to about 1.1 µM and inactive = higher.

Tests used:
Assay in all cases: inhibition of tumour cell growth, NCI panel, 48 h
UACC-62 = test system: UACC-62
A498 = test system: A498
MDA-MB-435 = test system: MDA-MB-435
OVCAR-4 = test system: OVCAR-4
M14 = test system: M14
OVCAR-5 = test system: OVCAR-5
DU-145 = test system: DU-145
EKVX = test system: EKVX
SNB-75 = test system: SNB-75
MDA-N = test system: MDA-N
OVCAR-8 = test system: OVCAR-8
CAKI-1 = test system: CAKI-1
SF-268 = test system: SF-268
NCI-H23 = test system: NCI-H23
ACHN = test system: ACHN
NCI-H460 = test system: NCI-H460
A549 = test system: A549
PC-3 = test system: PC-3
UACC-257 = test system: UACC-257
MDA-MB-231 = test system: MDA-MB-231
SK-MEL-28 = test system: SK-MEL-28
COLO 205 = test system: COLO 205
U-251 = test system: U-251
786-0 = test system: 786-0
K562 = test system: K562
SNB-19 = test system: SNB-19
SF-295 = test system: SF-295
SN12C = test system: SN12C
MOLT-4 = test system: MOLT-4
SR = test system: SR
HOP-62 = test system: HOP-62
SW-620 = test system: SW-620
UO-31 = test system: UO-31
SF-539 = test system: SF-539
CCRF-CEM = test system: CCRF-CEM
HCT-116 = test system: HCT-116
T47D = test system: T47D
NCI-H522 = test system: NCI-H522
SK-OV-3 = test system: SK-OV-3
HCC 2998 = test system: HCC 2998
NCI-H226 = test system: NCI-H226
HCT-15 = test system: HCT-15
NCI/ADR-RES = test system: NCI/ADR-RES
HOP-92 = test system: HOP-92
BT-549 = test system: BT-549
OVCAR-3 = test system: OVCAR-3
RXF 393 = test system: RXF 393
RPMI-8226 = test system: RPMI-8226
KM12 = test system: KM12
Malme-3M = test system: Malme-3M
SK-MEL-2 = test system: SK-MEL-2
LOX IMVI = test system: LOX IMVI
HL-60 = test system: HL-60
SK-MEL-5 = test system: SK-MEL-5
TK-10 = test system: TK-10
IGROV-1 = test system: IGROV-1
MCF7 = test system: MCF7
HT-29 = test system: HT-29

## COC(=O)c1cc(C#N)[nH]c1-c1ccc(C)s1
UACC-62
  GI50: 51.3 µM (inactive)
A498
  GI50: 26.9 µM (inactive)
MDA-MB-435
  GI50: 91.4 µM (inactive)
OVCAR-4
  GI50: 76.2 µM (inactive)
M14
  GI50: > 100 µM (inactive)
OVCAR-5
  GI50: 47.5 µM (inactive)
DU-145
  GI50: 30.6 µM (inactive)
EKVX
  GI50: 19.5 µM (inactive)
SNB-75
  GI50: 25.3 µM (inactive)
MDA-N
  GI50: > 100 µM (inactive)
OVCAR-8
  GI50: 59.3 µM (inactive)
CAKI-1
  GI50: 41.9 µM (inactive)
SF-268
  GI50: 42.2 µM (inactive)
NCI-H23
  GI50: 34 µM (inactive)
ACHN
  GI50: 41.3 µM (inactive)
NCI-H460
  GI50: 82.2 µM (inactive)
A549
  GI50: 46.2 µM (inactive)
PC-3
  GI50: 8.39 µM (inactive)
UACC-257
  GI50: 64.7 µM (inactive)
MDA-MB-231
  GI50: 38.6 µM (inactive)
SK-MEL-28
  GI50: 56.4 µM (inactive)
COLO 205
  GI50: 64.3 µM (inactive)
U-251
  GI50: 95.5 µM (inactive)
786-0
  GI50: 98.2 µM (inactive)
K562
  GI50: > 100 µM (inactive)
SNB-19
  GI50: > 100 µM (inactive)
SF-295
  GI50: 38.8 µM (inactive)
SN12C
  GI50: 63.2 µM (inactive)
MOLT-4
  GI50: > 100 µM (inactive)
SR
  GI50: 63 µM (inactive)
HOP-62
  GI50: 33 µM (inactive)
SW-620
  GI50: 43.9 µM (inactive)
UO-31
  GI50: 42.9 µM (inactive)
SF-539
  GI50: > 100 µM (inactive)
CCRF-CEM
  GI50: 53 µM (inactive)
HCT-116
  GI50: > 100 µM (inactive)
T47D
  GI50: 25.6 µM (inactive)
NCI-H522
  GI50: 36.1 µM (inactive)
SK-OV-3
  GI50: 55.5 µM (inactive)
HCC 2998
  GI50: > 100 µM (inactive)
NCI-H226
  GI50: 37.6 µM (inactive)
HCT-15
  GI50: 41.6 µM
NCI/ADR-RES
  GI50: 31.1 µM (inactive)
HOP-92
  GI50: 30.2 µM (inactive)
BT-549
  GI50: 30.5 µM (inactive)
OVCAR-3
  GI50: 26.9 µM (inactive)
RXF 393
  GI50: 11.5 µM (inactive)
RPMI-8226
  GI50: 51.3 µM (inactive)
KM12
  GI50: 92.7 µM (inactive)

## COc1ccc(Nc2nnc(CCCCCCCCc3nnc(Nc4ccc(OC)cc4)o3)o2)cc1
A498
  GI50: > 100 µM (inactive)
MDA-MB-435
  GI50: > 100 µM (inactive)
OVCAR-4
  GI50: > 100 µM (inactive)
Malme-3M
  GI50: > 100 µM (inactive)
M14
  GI50: > 100 µM (inactive)
OVCAR-5
  GI50: > 100 µM (inactive)
DU-145
  GI50: > 100 µM (inactive)
SK-MEL-2
  GI50: > 100 µM (inactive)
EKVX
  GI50: > 100 µM (inactive)
SNB-75
  GI50: > 100 µM (inactive)
MDA-N
  GI50: > 100 µM (inactive)
OVCAR-8
  GI50: > 100 µM (inactive)
CAKI-1
  GI50: > 100 µM (inactive)
LOX IMVI
  GI50: > 100 µM (inactive)
SF-268
  GI50: > 100 µM (inactive)
NCI-H23
  GI50: > 100 µM (inactive)
HL-60
  GI50: > 100 µM (inactive)
ACHN
  GI50: > 100 µM (inactive)
NCI-H460
  GI50: > 100 µM (inactive)
A549
  GI50: > 100 µM (inactive)
PC-3
  GI50: > 100 µM (inactive)
UACC-257
  GI50: > 100 µM (inactive)
MDA-MB-231
  GI50: > 100 µM (inactive)
SK-MEL-28
  GI50: > 100 µM (inactive)
COLO 205
  GI50: > 100 µM (inactive)
U-251
  GI50: > 100 µM (inactive)
786-0
  GI50: > 100 µM (inactive)
SK-MEL-5
  GI50: > 100 µM (inactive)
K562
  GI50: > 100 µM (inactive)
SNB-19
  GI50: > 100 µM (inactive)
SF-295
  GI50: > 100 µM (inactive)
SN12C
  GI50: > 100 µM (inactive)
MOLT-4
  GI50: > 100 µM (inactive)
TK-10
  GI50: > 100 µM (inactive)
HOP-62
  GI50: > 100 µM (inactive)
SW-620
  GI50: > 100 µM (inactive)
IGROV-1
  GI50: > 100 µM (inactive)
UO-31
  GI50: > 100 µM (inactive)
SF-539
  GI50: > 100 µM (inactive)
CCRF-CEM
  GI50: > 100 µM (inactive)
HCT-116
  GI50: > 100 µM (inactive)
NCI-H522
  GI50: 61.7 µM (inactive)
SK-OV-3
  GI50: > 100 µM (inactive)
HCC 2998
  GI50: > 100 µM (inactive)
NCI-H226
  GI50: > 100 µM (inactive)
HCT-15
  GI50: > 100 µM
NCI/ADR-RES
  GI50: > 100 µM (inactive)
HOP-92
  GI50: > 100 µM (inactive)
BT-549
  GI50: 80.9 µM (inactive)
MCF7
  GI50: > 100 µM (inactive)
OVCAR-3
  GI50: > 100 µM (inactive)
RXF 393
  GI50: > 100 µM (inactive)
HT-29
  GI50: > 100 µM (inactive)
KM12
  GI50: > 100 µM (inactive)

## Cc1ccc(S(=O)(=O)Nn2c(O)c(C#N)c(-c3ccc([N+](=O)[O-])cc3)c(C#N)c2=O)cc1
UACC-62
  GI50: > 100 µM (inactive)
A498
  GI50: > 100 µM (inactive)
MDA-MB-435
  GI50: > 100 µM (inactive)
OVCAR-4
  GI50: > 100 µM (inactive)
Malme-3M
  GI50: > 100 µM (inactive)
M14
  GI50: > 100 µM (inactive)
OVCAR-5
  GI50: > 100 µM (inactive)
SK-MEL-2
  GI50: > 100 µM (inactive)
EKVX
  GI50: > 100 µM (inactive)
SNB-75
  GI50: > 100 µM (inactive)
MDA-N
  GI50: > 100 µM (inactive)
OVCAR-8
  GI50: > 100 µM (inactive)
CAKI-1
  GI50: > 100 µM (inactive)
LOX IMVI
  GI50: > 100 µM (inactive)
SF-268
  GI50: > 100 µM (inactive)
HL-60
  GI50: > 100 µM (inactive)
ACHN
  GI50: > 100 µM (inactive)
NCI-H460
  GI50: > 100 µM (inactive)
A549
  GI50: > 100 µM (inactive)
PC-3
  GI50: > 100 µM (inactive)
UACC-257
  GI50: > 100 µM (inactive)
MDA-MB-231
  GI50: > 100 µM (inactive)
SK-MEL-28
  GI50: > 100 µM (inactive)
COLO 205
  GI50: > 100 µM (inactive)
U-251
  GI50: > 100 µM (inactive)
786-0
  GI50: > 100 µM (inactive)
SK-MEL-5
  GI50: > 100 µM (inactive)
K562
  GI50: > 100 µM (inactive)
SNB-19
  GI50: > 100 µM (inactive)
SF-295
  GI50: > 100 µM (inactive)
SN12C
  GI50: > 100 µM (inactive)
MOLT-4
  GI50: > 100 µM (inactive)
TK-10
  GI50: > 100 µM (inactive)
HOP-62
  GI50: > 100 µM (inactive)
SW-620
  GI50: > 100 µM (inactive)
IGROV-1
  GI50: > 100 µM (inactive)
SF-539
  GI50: > 100 µM (inactive)
CCRF-CEM
  GI50: > 100 µM (inactive)
HCT-116
  GI50: > 100 µM (inactive)
NCI-H522
  GI50: > 100 µM (inactive)
SK-OV-3
  GI50: > 100 µM (inactive)
HCC 2998
  GI50: > 100 µM (inactive)
NCI-H226
  GI50: > 100 µM (inactive)
HCT-15
  GI50: > 100 µM
NCI/ADR-RES
  GI50: > 100 µM (inactive)
HOP-92
  GI50: > 100 µM (inactive)
BT-549
  GI50: > 100 µM (inactive)
MCF7
  GI50: > 100 µM (inactive)
RXF 393
  GI50: > 100 µM (inactive)
HT-29
  GI50: > 100 µM (inactive)
KM12
  GI50: > 100 µM (inactive)
